T1: mS100A9 (Mus musculus, UniProt P31725)
T1 construct: made in house; host or cells: Escherichia coli (or purified from granulocytes)
T1 sequence (P31725 1-113): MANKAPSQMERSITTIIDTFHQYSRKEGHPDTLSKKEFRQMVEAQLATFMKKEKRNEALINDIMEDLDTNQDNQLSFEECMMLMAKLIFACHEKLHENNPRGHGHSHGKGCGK

T2: mS100A8/A9 and mLPS-Trap (Mus musculus, UniProt P31725)
T2 sequence (P31725 2-113 limits assumed): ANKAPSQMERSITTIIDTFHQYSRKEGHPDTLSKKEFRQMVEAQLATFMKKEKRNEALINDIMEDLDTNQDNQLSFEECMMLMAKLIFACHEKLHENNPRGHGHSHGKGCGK

T3: mS100A8/A9 and mRAGE (Mus musculus, UniProt P31725)
T3 construct: purchased R&D Systems (mRAGE/Fc); S100A8/A9 made in house
T3 sequence (P31725 2-113 limits assumed): T2 sequence (P31725 2-113 limits assumed)
T3 sequence (P27005 2-89 partner limits assumed): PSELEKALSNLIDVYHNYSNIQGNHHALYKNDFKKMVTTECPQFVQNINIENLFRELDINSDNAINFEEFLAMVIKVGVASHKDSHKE

T4: human S100A9 binding to human TLR4/MD2 (Homo sapiens, UniProt P06702)
T4 construct: purchased R&D Systems (TLR4/MD-2 complex); S100A9 made in house
T4 sequence (P06702 1-114): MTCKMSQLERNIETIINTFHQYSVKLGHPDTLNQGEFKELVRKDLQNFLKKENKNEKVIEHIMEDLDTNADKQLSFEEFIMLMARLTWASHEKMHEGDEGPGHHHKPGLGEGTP

T5: mS100A9 and mLPS-Trap (Mus musculus, UniProt P31725)
T5 sequence (P31725 2-113 limits assumed): T2 sequence (P31725 2-113 limits assumed)

T6: mS100A9 and mRAGE/hFc (Mus musculus, UniProt P31725)
T6 construct: purchased R&D Systems (mRAGE/Fc); S100A9 made in house
T6 sequence (P31725 2-113 limits assumed): T2 sequence (P31725 2-113 limits assumed)

T7: human S100A9 (Homo sapiens, UniProt P06702)
T7 construct: made in house; host or cells: Escherichia coli (or purified from granulocytes)
T7 sequence (P06702 1-114): T4 sequence (P06702 1-114)

T8: human S100A9 binding to human RAGE (Homo sapiens, UniProt P06702)
T8 construct: purchased R&D Systems (RAGE/Fc); S100A9 made in house
T8 sequence (P06702 1-114): T4 sequence (P06702 1-114)

T9: hS100A9 (Homo sapiens, UniProt P06702)
T9 construct: made in house; host or cells: Escherichia coli (or purified from granulocytes)
T9 sequence (P06702 1-114): T4 sequence (P06702 1-114)

B1: human S100A8/A9 heterodimer (complex)
chain 1: MLTELEKALNSIIDVYHKYSLIKGNFHAVYRDDLKKLLETECPQYIRKKGADVWFKELDINTDGAVNFQEFLILVIKMGVAAHKKSHEESHKE
chain 2: T4 sequence (P06702 1-114)
notes: S100A8, human; S100A9, human; also called hS100A8/9; S100A8/A9 complex; source: either produced recombinantly in Escherichia coli or purified from granulocytes
B2: mouse S100A9 (natural protein, UniProt P31725 1-113, looked up)
chain: T1 sequence (P31725 1-113)
notes: S100A9, mouse; called homodimeric; also called mS100A9; murine S100A9; source: either produced recombinantly in Escherichia coli or purified from granulocytes
B3: mouse S100A8/A9 heterodimer (complex)
chain 1: MPSELEKALSNLIDVYHNYSNIQGNHHALYKNDFKKMVTTECPQFVQNINIENLFRELDINSDNAINFEEFLAMVIKVGVASHKDSHKE
chain 2: T1 sequence (P31725 1-113)
notes: S100A8, mouse; S100A9, mouse; also called mS100A8/A9; murine S100A8/A9; source: either produced recombinantly in Escherichia coli or purified from granulocytes

How the values were obtained:
[1] = target: T1, mS100A9; assay: SPR: inhibition of mouse S100A9 binding to immobilised ABR-224649; conditions: Table S1
Protocol: (§1) The SPR analysis was carried out with the Biacore 3000 system (GE Healthcare). Sensor chips, amine coupling kit, immobilization and running buffers, and regeneration solutions were obtained from GE Healthcare. Working solutions of all reagents used for Biacore analysis were prepared in 0.01 M Hepes, 0.15 M NaCl (pH 7.4) containing 0.005% v/v Surfactant P-20 (HBS-P; GE Healthcare) by buffer exchange on Fast Protein Desalting Micro-Spin Columns from Pierce. ABR-215757 was immobilised onto a CM5 chip through an amino-linker (ABR-224649). […] Activity of ligands after immobilisation was tested by injecting specific antibodies (unpublished data). In some experiments, S100A9 was immobilized either by random amine coupling or with a known orientation (i.e., by sulhydryl group conjugation to the only cysteine in S100A9 at position 3).
(§2) Binding to the various surfaces was performed by injecting the analyte at a flow rate of 30 μl/min in a physiological buffer (HBS-P) containing 1 mM Ca^2+ and 10 μM Zn^2+ as proposed for S100A8/9 by Robinson et al.. A typical analysis cycle consists of: (1) pumping running buffer for 1 min to obtain a stable baseline; (2) injection of sample for an appropriate period of time (association); (3) pumping running buffer for 2.5 min (dissociation); (4) injection of a short pulse (30 s) of 15 μl 10 mM glycine-HCl (pH 2.0) (regeneration); and (5) pumping running buffer for 2 min (stabilisation after regeneration) at a flow rate of 30 μl/min. […] In one experiment, S100A9 was injected into a buffer with a fixed Ca^2+ concentration (1 mM) and Zn^2+ in the range 0–50 μM. In a second experiment, Ca^2+ was varied from 0–2 mM at a fixed Zn^2+ concentration (10 μM). In subsequent analyses, regeneration was carried out under more mild conditions, i.e., by injecting 30 μl of HBS-P containing 3 mM EDTA (HBS-EP; GE Healthcare) for 60 s, to prolong the lifespan of the chip.
(§3) Compounds were also injected over the immobilised surfaces in the absence of S100A9 to exclude, or make possible correction for, any direct binding of compound to the surface.
(§4) Evaluation was carried out using BIAevaluation Software version 3.2 (GE Healthcare). The response at steady-state was obtained by fit of sensorgrams to standard binding models, where appropriate, or calculated as responses at late association or early dissociation phase using the Steady state affinity function in BIAevaluation. Affinity was determined from kinetic analysis (on- and off-rates) or as the apparent affinity after plotting responses versus concentration of analyte in a saturation curve. In the inhibition assay format, the competitor concentration yielding 50% inhibition (IC50) was calculated by fitting data to a one-site competition model in GraphPad Prism.

[2] = target: T2, mS100A8/A9 and mLPS-Trap; assay: SPR: inhibition of mouse S100A8/A9 binding to mLPS-Trap; conditions: Table S1; read-out: S100A8-9 binding IC50, mS100A8/A9 TLR4
Protocol: as §1, §2, §3, §4

[3] = target: T3, mS100A8/A9 and mRAGE; assay: SPR: inhibition of mouse S100A8/A9 binding to mouse RAGE; conditions: read-out: S100A8-9 binding IC50, mS100A8/A9 RAGE; Table S1
Protocol: as §1, §2, §3, §4

[4] = target: T4, human S100A9 binding to human TLR4/MD2; assay: SPR: inhibition of human S100A9 binding to immobilised human TLR4/MD2; conditions: for IC50: Table S1, read-out: S100A9 binding IC50, hS100A9 TLR4
Protocol: as §1, §2, §3, §4

[5] = test system: aEAE development in SLJ/N mice; assay: acute experimental autoimmune encephalomyelitis (aEAE) in mice; type: in vivo, mouse
Source text: A training set of five quinoline derivatives with structural diversification performed at position 5 of the quinoline ring system was used for the SAR. PCA was used to uncover any relationship between the binding activities of the quinoline derivatives at the S100 proteins and the inhibitory effect of these derivatives in the aEAE model. PLS was then used to model the relationship between the physiochemical descriptors used to characterize the compounds and their biological responses. […] All variables were mean centred and scaled to unit variance.

[6] = target: T5, mS100A9 and mLPS-Trap; assay: SPR: inhibition of mouse S100A9 binding to immobilised mouse TLR4/MD2 fusion protein (mLPS-Trap); conditions: for IC50: Table S1
Protocol: as §1, §2, §3, §4

[7] = target: T6, mS100A9 and mRAGE/hFc; assay: SPR: inhibition of mouse S100A9 binding to immobilised mouse RAGE; conditions: read-out: S100A9 binding IC50, mS100A9 RAGE; Table S1
Protocol: as §1, §2, §3, §4

[8] = target: T7, human S100A9; assay: SPR: human S100A9 binding to immobilised ABR-224649 (Q compound), direct binding and displacement
Protocol: as §1, §2, §3, §4

[9] = target: T8, human S100A9 binding to human RAGE; assay: SPR: inhibition of human S100A9 binding to immobilised human RAGE; conditions: read-out: S100A9 binding IC50, hS100A9 RAGE; Table S1
Protocol: as §1, §2, §3, §4

[10] = target: T9, hS100A9; assay: SPR: analytes injected over immobilised hS100A9; type: binding
Protocol: as §1
(B) Left: 100 nM TLR4/MD2 or MD2 injected over amino-coupled hS100A9. […] Fab 43/8 was injected at 50–200 nM to verify activity of immobilized hS100A9 (right). […] (482 KB PDF) Click here for additional data file.

[11] = target: mouse S100A9 (mouse) (UniProt P31725); assay: SPR; competition: 100 nM mouse S100A9 injected over amine-coupled mLPS-Trap with soluble mLPS-Trap (100, 200, 400 nM) as competitor
[12] = target: T10, recombinant human RAGE/Fc (human, UniProt Q15109 23-342); assay: SPR; S100 proteins injected (100 nM, or a range of concentrations; 30 ul/min) over human RAGE/Fc immobilised by amine coupling (~3,000 RU); HBS-P pH 7.4 with 1 mM Ca2+ and 10 uM Zn2+; fit to a 1:1 model with mass transfer; half-maximal binding from responses at late association (apparent); conditions: both partners purified
T10 construct: RAGE (receptor for advanced glycation end products), human; human IgG1 Fc was used as the control for the Fc part; also called hRAGE; rhRAGE/Fc; source: bought: R&D Systems (carrier-free recombinant)

[13] = target: T11, human TLR4/MD-2 complex (human, UniProt O00206 24-631; Q9Y6Y9 19-160); assay: SPR; S100 proteins injected (100 nM, or a range of concentrations; 30 ul/min) over human TLR4/MD2 immobilised by amine coupling (~3,000 RU); HBS-P pH 7.4 with 1 mM Ca2+ and 10 uM Zn2+; fit to a 1:1 model with mass transfer; half-maximal binding from responses at late association (apparent); conditions: both partners purified
T11 construct: Toll-like receptor 4, human; MD-2, human; Soluble recombinant complex; also called hTLR4/MD-2; hTLR4/MD2; source: bought: R&D Systems (carrier-free recombinant)

[14] = target: T12, mouse RAGE/Fc (mouse, UniProt Q62151-1 23-340); assay: SPR; 50 and 100 nM mouse S100A9, or 100 nM mouse S100A8/A9, injected (3 min at 30 ul/min) over mouse RAGE/Fc or mLPS-Trap coupled to the sensor chip; conditions: both partners purified
T12 construct: RAGE, mouse; also called mRAGE; mRAGE/hFc; source: bought: R&D Systems (carrier-free recombinant)
T12 sequence (Q62151 23-340): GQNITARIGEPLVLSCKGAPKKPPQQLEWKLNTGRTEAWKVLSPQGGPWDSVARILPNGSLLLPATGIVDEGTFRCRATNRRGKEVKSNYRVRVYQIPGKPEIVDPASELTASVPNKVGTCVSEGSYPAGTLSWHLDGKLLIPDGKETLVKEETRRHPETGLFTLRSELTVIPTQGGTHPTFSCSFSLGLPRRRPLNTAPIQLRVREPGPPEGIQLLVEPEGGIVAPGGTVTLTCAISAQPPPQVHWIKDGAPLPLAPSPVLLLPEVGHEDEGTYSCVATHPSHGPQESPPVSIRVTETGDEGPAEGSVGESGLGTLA

T10 sequence (Q15109 23-342): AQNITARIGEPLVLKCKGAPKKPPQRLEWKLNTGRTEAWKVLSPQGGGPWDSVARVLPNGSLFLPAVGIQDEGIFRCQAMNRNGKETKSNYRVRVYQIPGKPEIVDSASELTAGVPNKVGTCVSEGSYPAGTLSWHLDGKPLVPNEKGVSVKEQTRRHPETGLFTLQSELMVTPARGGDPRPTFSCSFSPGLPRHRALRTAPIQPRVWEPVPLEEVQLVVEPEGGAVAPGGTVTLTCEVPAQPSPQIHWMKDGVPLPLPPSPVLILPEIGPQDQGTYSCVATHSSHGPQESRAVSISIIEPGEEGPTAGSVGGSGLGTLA
T11 sequence (O00206 24-631, chain 1 of 2): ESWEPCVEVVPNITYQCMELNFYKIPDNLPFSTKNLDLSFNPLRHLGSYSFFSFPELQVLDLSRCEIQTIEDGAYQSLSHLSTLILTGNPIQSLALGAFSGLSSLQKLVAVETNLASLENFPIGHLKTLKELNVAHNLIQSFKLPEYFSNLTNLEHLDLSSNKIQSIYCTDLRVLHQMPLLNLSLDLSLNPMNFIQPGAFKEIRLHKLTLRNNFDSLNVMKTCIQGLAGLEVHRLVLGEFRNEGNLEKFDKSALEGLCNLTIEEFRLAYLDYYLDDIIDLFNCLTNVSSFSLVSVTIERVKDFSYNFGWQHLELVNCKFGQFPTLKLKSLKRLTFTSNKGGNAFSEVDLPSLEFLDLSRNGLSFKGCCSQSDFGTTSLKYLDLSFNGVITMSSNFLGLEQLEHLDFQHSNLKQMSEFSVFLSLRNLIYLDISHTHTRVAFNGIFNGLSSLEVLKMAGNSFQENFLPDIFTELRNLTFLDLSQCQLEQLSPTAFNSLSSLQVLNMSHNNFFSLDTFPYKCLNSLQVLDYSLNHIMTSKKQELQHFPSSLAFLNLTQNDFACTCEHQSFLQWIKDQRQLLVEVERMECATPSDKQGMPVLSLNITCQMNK
T11 sequence (Q9Y6Y9 19-160, chain 2 of 2): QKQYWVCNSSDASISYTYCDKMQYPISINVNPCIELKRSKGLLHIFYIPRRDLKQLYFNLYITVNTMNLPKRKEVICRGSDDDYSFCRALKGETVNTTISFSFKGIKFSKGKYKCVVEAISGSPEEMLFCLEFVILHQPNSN

Molecule | IC50 [1] | IC50 [2] | IC50 [3] | IC50 [4] | aEAE Inhibition ED50 [5] | IC50 [6] | IC50 [7] | IC50 [9] | also measured
CCN(C(=O)c1c(O)c2c(C(F)(F)F)cccc2n(C)c1=O)c1ccccc1 [ABR-215629] | 916 µM | 301 µM | 351 µM | 79 µM | 0.13 mg/kg | 741 µM | 230 µM | – | –
CCc1cccc2c1c(O)c(C(=O)N(CCOCCN)c1ccccc1)c(=O)n2C [ABR-224649] | – | – | – | – | – | – | – | – | ability to displace S100A9 binding to immobilised ABR-224649 ([8]; coinjected with S100A9, unpublished data): very similar ability to displace binding as ABR-215757; Kd ([8]; steady-state responses vs 25–200 nM S100A9, 1 mM Ca2+, 10 μM Zn2+, read-out: half-maximal binding of S100A9 to immobilised ABR-224649): 0.085 µM
CCN(C(=O)c1c(O)c2c(SC)cccc2n(C)c1=O)c1ccccc1 [ABR-215628] | 906 µM | 257 µM | 174 µM | 154 µM | 0.20 mg/kg | 780 µM | 447 µM | 135 µM | –
lipopolysaccharide [LPS, reference compound] | – | – | – | – | – | – | – | – | effect on hS100A9 binding to immobilised hTLR4/MD2 ([4]; 200 ng/ml): no effect; effect on mS100A9 binding to immobilised mLPS-Trap [6]: no effect
CCN(C(=O)c1c(O)c2c(Br)cccc2n(C)c1=O)c1ccccc1 [ABR-215727] | 522 µM | 200 µM | 164 µM | 87.9 µM | 0.16 mg/kg | 440 µM | 191 µM | 78.7 µM | –
rhMD-2: recombinant human MD-2 | – | – | – | – | – | – | – | – | binding to immobilised S100A9 [10]: did not; displacement of S100A9 binding to immobilised hTLR4/MD2 ([4]; 200 and 400 nM, unpublished data): No displacement
mouse TLR4/MD2 fusion protein (mLPS-Trap) | – | – | – | – | – | – | – | – | percent inhibition of mS100A9 binding to immobilised mLPS-Trap at 100 nM competitor [11]: 22%; percent inhibition of mS100A9 binding to immobilised mLPS-Trap at 200 nM competitor [11]: 51%; percent inhibition of mS100A9 binding to immobilised mLPS-Trap at 400 nM competitor [11]: 70%
CCN(C(=O)c1c(O)c2ccccc2n(C)c1=O)c1ccccc1 [ABR-212662] | 1940 µM | 576 µM | 720 µM | 415 µM | 1.87 mg/kg | 1970 µM | 1030 µM | 436 µM | –
CCN(C(=O)c1c(O)c2c(C)cccc2n(C)c1=O)c1ccccc1 [ABR-215111] | 1340 µM | 293 µM | 310 µM | 217 µM | 0.55 mg/kg | 1240 µM | 783 µM | 168 µM | –
B1 | – | – | – | – | – | – | – | – | Kd [12]: 0.0094 µM; Kd [13]: 0.0038 µM
B2 | – | – | – | – | – | – | – | – | binding result [14]: binds
B3 | – | – | – | – | – | – | – | – | binding result [14]: binds
